According to US20230340498A1, “COMPOSITIONS AND METHODS FOR INDUCIBLE ALTERNATIVE SPLICING REGULATION OF GENE EXPRESSION” (The Children's Hospital of Philadelphia, priority 2020, published 2023):

System: HTT
Assay: X^on-SaCas9 regulated HTT exon 1 editing in HEK293 cells
Type: cell-based, Human
Description: Cell culture, transfection, and LMI070/RG7800 treatment. Human embryonic kidney (HEK293) cells (obtained from CHOP Research Vector Core stock) were maintained in DMEM media containing 10% Fetal Bovine Serum (FBS), 1% L-Glutamine and 1% penicillin/streptomycin at 37° C. with 5% CO2. Cells were cultured in 24 well plates and transfected at 80-90% confluence using Lipofectamine 2000 transfection reagent, according to the manufacturer’s protocol. For all experiments, 4 hours after plasmid transfection, cells were treated with LMI070 (MedChemExpress, HY-19620, suspended in DMSO) or RG7800 (MedChemExpress, HY-101792A, suspended in H2O) at the indicated concentrations. Cells were tested for mycoplasma by Research Vector Core. None of the cells used in the study were listed in ICLAC database of commonly misidentified cell lines.
RNA extraction, RT-PCR, and Splicing assays. Total RNA was extracted using Trizol (Life Technologies) according to the manufacturer’s protocol, with the exception of 1 µL Glycoblue (Life Technologies) in addition to the aqueous phase on the isopropanol precipitation step and a single wash with cold 70% ethanol. To determine HTT expression levels after transfection, RNA samples were quantified by spectrophotometry and subsequently cDNAs generated from […] of total RNA with random hexamers (TaqMan RT reagents, Applied Biosystems). To determine human HTT expression levels in HEK293 cells, we used TaqMan probes for human HTT and glyceraldehyde 3-phosphate dehydrogenase (GAPDH) mRNAs obtained from Applied Biosystems. Relative HTT gene expression was determined using the ddCt method. […] Splicing was determined by PCR using the Phusion High-Fidelity polymerase (Thermofisher) and PCR products separated on a 2.5% agarose gel pre-stained with EtBr and spliced-in and spliced-out band densitometry performed using with the ChemiDoc Imaging System (BioRad) and Image Lab analysis software. Splicing induction from mouse tissues was determined using two custom TaqMan assays designed to determine total or LMI070-spliced in mRNA transcripts. The percentage of induction was determined by dividing the average Ct novel exon and average Ct Total, relative to control animals injected with AAV virus plus vehicle.
Western Blots. HEK293 cells were rinsed and lysed with Passive Lysis Buffer (PBL, Promega), protein concentrations determined using the DC protein assay (Bio-Rad), and 10-20 µg of protein loaded on a 3%-8% NuPAGE Tris-Acetate Gel in tris-acetate buffer (Novex Life Technologies) or a 4-12% NuPAGE TrisBis NuPAGE gels in MES buffer (Novex Life Technologies) to determine HTT, SaCas9, or eGFP protein levels, respectively, with β-catenin as loading control. […]

`CC1(C)CC(Oc2ccc(-c3ccc(-c4cn[nH]c4)cc3O)nn2)CC(C)(C)N1` [LMI070, 5-(1H-Pyrazol-4-yl)-2-(6-((2,2,6,6-tetramethylpiperidin-4-yl)oxy)pyridazin-3-yl)phenol] was tested, and the “SaCas9 expression from X^on switch” value (HEK293 cells, varying doses of LMI070, western blot 24 h) was “clear dose response”, the “HTT exon 1 editing versus constitutively expressed SaCas9” value (X^on-SaCas9 plus gRNAs, 100 nM LMI070) was “equivalent editing” and the “reduction of HTT transcripts” value (X^on-SaCas9 plus gRNAs, upon LMI070 treatment, RT-qPCR) was 50%. For the same molecule, the HTT protein levels (X^on-SaCas9 plus gRNAs, upon LMI070 treatment, western blot) was “similarly reduced”.
